Measured values from US20080311657A1, “Killing Human Lymphoma and Leukemia Cancer Cells and Tcr-Activated Normal Human Cells By Dopamine D1r Agonists” (priority 2005, published 2008).

What was measured:
Assay type in all cases: cell-based
[1] = test system: Human Burkitt's B-lymphoma cells (Daudi); assay: Number of living cells counted by flow cytometry (FACSort) after D1R agonist; conditions: for Cell death by number of living cells (FIGS. 16-18), in words: 10^−3M-10^−6M, 3 days; for No. of Cells: 1 × 10^−4M; for No. of Cells / Killing, in words (Table 5): 1 hour; for Killing, in words (Table 5): 10^−4 M
Description: (§1) Human Burkitt's B-lymphoma cells (Daudi) were seeded in 96 well plates (0.5 ml per well of 0.5 million cells/ml) and A 77636 hydrochloride was added and diluted 1:00 into the wells at starting concentrations of 10^−1M-10^−4M, so that the final concentration range tested was 10^−3M-10^−6M. […] Then, the number of living cells was evaluated by flow cytometry (the cells were counted by FACsort for a fixed time length of 1 min, in which 100 microliter of each sample was tested).
as §1, with “68930” for “77636”
[…] Then, the number of living cells was evaluated by flow cytometry (the cells were counted by FACsort for a fixed time length of 1 min, in which 100 microliter of each sample was tested).
(§2) Cell viability was tested afterwards.
(§3) The effect of dopamine itself (that can of course activate all its D1R-5 receptors) was also tested. All of these molecules were tested at a similar concentration (10^−4 M). […] The specificity and restriction of the effect to the D1R is also seen in Tables 7 and 8.

[2] = test system: Human T-cell leukemia (Jurkat) cells; assay: as above; conditions: 10^−3M-10^−6M, 3 days
Description: Afterwards, the microtiter plates were placed in an incubator (37° C., humidified incubator, 5% CO2) for 3 days. Then, the number of living cells was evaluated by flow cytometry (the cells were counted by FACsort for a fixed time length of 1 min, in which 100 microliter of each sample was tested). Of note, A 77636 hydrochloride is an orally-active D1R agonist, according to the manufacturer (Tocris).
(§4) Afterwards, the microtiter plates were placed in an incubator (37° C., humidified incubator, 5% CO2) for 3 days. Then, the number of living cells was evaluated by flow cytometry (the cells were counted by FACsort for a fixed time length of 1 min, in which 100 microliter of each sample was tested).
(§5) The experiment was designed to test the effect of exposing the cells to the D1R agonist for 1 min, 15 min, 1 hr or 72 hr. Thus, 1 min, or 15 min or 1 hr after the addition of the D1R agonist, the corresponding cells were transferred into tubes, centrifuged (1000 rpm for 10 min); and the supernatant was removed. […] Thus, its medium was not replaced, and these cells and remained as such in the incubator for 72 hr. At the end of the 72 hr incubation, the number of living cells was evaluated by flow cytometry (the cells were counted by FACsort for a fixed time length of 1 min, in which 100 microliter of each sample was tested).
as §2
(§6) For this purpose, the Jurkat T-cell leukemia line, the HuT-78 human T-lymphoma (cutaneous “Sezary” T-lymphoma) line, and the K-562 human Chronic-Myeloid Leukemia (CML) and Daudi Human B-lymphoma (Burkitt's lymphoma) lines were seeded in tissue culture wells (0.5 million cells/0.5 ml/well).
(§7) Cell survival/death was evaluated 3 days later by counting the number of living cells, using flow cytometry.

[3] = test system: Human cutaneous Sezary T-lymphoma cells (HuT-78); assay: as above; conditions: 10^−3M-10^−6M, 3 days
Description: (§8) Human cutaneous Sezary T-lymphoma cells (HUT-78) were seeded in 96 well plates (0.5 ml per well of 0.5 million cells/ml) and A 77636 hydrochloride was added and diluted 1:00 into the wells at starting concentrations of 10^−1M-10^−4M, so that the final concentration range tested was 10^−3M-10^−6M. Afterwards, the microtiter plates were placed in an incubator (37° C., humidified incubator, 5% CO2) for 3 days. Then, the number of living cells was evaluated by flow cytometry (the cells were counted by FACsort for a fixed time length of 1 min, in which 100 microliter of each sample was tested).
as §8, with “68930” for “77636”
as §8, with “SKF 38393 hydrobromide” for “A 77636 hydrochloride”
Cell viability was tested afterwards. […]
as §7

[4] = test system: Human Burkitt's B-cell lymphoma (Raji) cells; assay: as above; conditions: 10^−3M-10^−6M, 3 days
Description: as §4, §2

[5] = test system: resting normal human T-cells; assay: as above; conditions: 10^−3M-10^−6M, 3 days
Description: as §4
FIGS. 31A and B are graphs showing that A 77636 hydrochloride kills much more TCR-activated (FIG. 31B) than resting normal (FIG. 31A) human T-cells. […] The cells were then transferred to the incubator for 72 hr incubation. At the end of the 72 hr incubation, the number of living cells in each well was evaluated by flow cytometry (the cells were counted by FACsort for a fixed time length of 1 min, in which 100 microliter of each sample was tested).
as §2

[6] = test system: Human chronic myelogenous leukemia cells (CML) (K-562); assay: as above; conditions: for Cell death by number of living cells (FIGS. 22-24), in words: 10^−3M-10^−6M, 3 days; for No. of Cells: 1 × 10^−4M; for No. of Cells / Killing, in words (Table 6): 1 hour; for Killing, in words (Table 6): 10^−4 M
Description: as §8, with “chronic myelogenous leukemia” for “cutaneous Sezary T-lymphoma”, “(CML) (K-562)” for “(HUT-78)”
as §8, with “chronic myelogenous leukemia” for “cutaneous Sezary T-lymphoma”, “(CML) (K-562)” for “(HUT-78)”, “68930” for “77636”
as §8, with “chronic myelogenous leukemia” for “cutaneous Sezary T-lymphoma”, “(CML) (K-562)” for “(HUT-78)”, “SKF 38393 hydrobromide” for “A 77636 hydrochloride”
as §5, with “Human chronic myelogenous leukemia cells (CML) (K-562) were seeded in 96 well plates (0.5 ml per well of 0.5 million cells/ml) and A 77636 hydrochloride was added and diluted 1:00 into the wells, at a fixed starting concentration of 10^−2M, so that the final concentration tested was 10^−4M. The” for “The”, “min),” for “min);”
as §2, §6, §7, §3

[7] = test system: Human Sezary T-Cell Lymphoma (HuT 78) Cells; assay: Cell number, necrosis and apoptosis by Annexin V/PI flow cytometry; conditions: 1 × 10^−4M, exposed for 1 hr; for % Necrotic Cells: Annexin V+ PI+; for % Apoptotic Cells: Annexin V+ PI−
Description: (§9) Measurement of cell death by flow cytometry and detection of phosphatidyl serine was performed using the IQ Products kit (R&D systems), according to the manufacturers instructions.
(§10) In detail: The Phosphatidyl Serine Detection kit provides a rapid and reliable method for the detection of apoptosis by flow cytometry. This method enables detection at the single-cell level, and also allows the distinction between apoptosis and necrosis.
(§11) During the early stages of apoptosis, phosphatidyl serine (PS) becomes exposed on the outside of the cell membrane. This early stage of apoptosis can be specifically detected by PS binding proteins (Annexin V).
(§12) During the early stages of apoptosis, the cell membrane is intact and the cells exclude propidium iodide (PI). Later, during the apoptosis process, the membrane becomes porous and PI becomes associated with DNA. The uptake of PI is an indication of necrosis.
as §3
(§13) Cancer death induced by selective D1R agonists occurs via necrosis. To study the mechanism by which the cancer cells die, due to their incubation with DR1 agonists, the phosphatidyl serine detection kit was used. This kit provides a rapid and reliable method for the detection of apoptosis by flow cytometry, enables detection at the single-cell level, and also allows the distinction between apoptosis and necrosis.
(§14) During the early stages of apoptosis, phosphatidyl serine (PS) becomes exposed on the outside of the cell membrane. This early stage of apoptosis can be specifically detected by PS binding proteins (Annexin V). During the early stages of apoptosis, the cell membrane is intact and the cells exclude propidium iodide (PI). Later, during the apoptosis process, the membrane becomes porous and PI becomes associated with DNA. The uptake of PI is an indication of necrosis. Thus, Annexin V^+ PI^− are considered cells that are undergoing apoptosis, while Annexin V^+ PI^+ are considered cells that are undergoing necrosis. Live cells are Annexin V^− PI^−.

[8] = test system: Human T-Cell Leukemia (Jurat) Cells; assay: as above; conditions: 1 × 10^−4M, exposed for 1 hr; for % Necrotic Cells: Annexin V+ PI+; for % Apoptotic Cells: Annexin V+ PI−
Description: as §9, §10, §11, §12, §3, §13, §14

SMILES	Cell death by number of living cells (FIGS. 16-18), in words [1]	Cell death by number of living cells (FIGS. 10-12), in words [2]	Cell death by number of living cells (FIGS. 13-15), in words [3]	Cell death by number of living cells (FIGS. 19-21), in words [4]	Killing effect by number of living cells (FIGS. 25-27), in words [5]	Cell death by number of living cells (FIGS. 22-24), in words [6]	No. of Cells [1]	Killing, in words (Table 5) [1]	No. of Cells [7]	% Necrotic Cells [7]	% Apoptotic Cells [7]	No. of Cells [8]	% Necrotic Cells [8]	% Apoptotic Cells [8]	No. of Cells [6]	Killing, in words (Table 6) [6]
Cl.NC[C@@H]1O[C@H](c2ccccc2)Cc2c1ccc(O)c2O (racemic) [A 68930 hydrochloride, cis-(±)-1-(aminomethyl)-3,4-dihydro-3-phenyl-1H-2-benzopyran-5,6-diol hydrochloride]	induces marked cell death	induces marked cell death	induces marked cell death	induces marked cell death	significantly milder killing effect	induces marked cell death	–	–	–	–	–	–	–	–	–	–
Br.Oc1cc2c(cc1O)C(c1ccccc1)CNCC2 (racemic) [SKF 38393 hydrobromide, (±)-1-phenyl-2,3,4,5-tetrahydro-(1H)-3-benzazepine-7,8-diol hydrobromide]	induces marked cell death	induces marked cell death	induces marked cell death	induces marked cell death	significantly milder killing effect	induces marked cell death	–	–	–	–	–	–	–	–	–	–
CCCN1CCC[C@@H]2Cc3n[nH]cc3C[C@H]21 [D2R Agonist, Quinpirole]	–	–	–	–	–	–	20,805	no such effect	23,880	21.97%	12.00%	7,395	7.65%	1.38%	27,360	no such effect
CCCN(CCC)C1CCc2ccc(O)cc2C1 (stereo not drawn) [D3R Agonist, 7-Hydroxy-DPAT]	–	–	–	–	–	–	18,330	no such effect	18,975	21.40%	14.67%	9,300	10.27%	1.68%	21,960	no such effect
NCCc1ccc(O)c(O)c1 [Dopamine]	–	–	–	–	–	–	5,325	killed the B-lymphoma cells	16,395	39.80%	19.07%	4,545	42.84%	7.06%	24,480	not the CML
